Results taken from doi:10.1101/2023.06.30.547126, “FruitFire: a luciferase based on a fruit fly metabolic enzyme” (bioRxiv, 2023).

Tests used:
Fluc = target: T1, Fluc (Photinus pyralis, UniProt P08659); assay: live-cell bioluminescence imaging (IVIS-100); assay type: cell-based; details: transfected CHO cells, 0.122-250 μM substrate
T1 construct: luc2 gene in pcDNA3.1, transfected CHO cells

CG6178 = target: T2, CG6178 (Drosophila melanogaster, UniProt Q9VCC6); assay: X-ray crystal structure, […] Å; assay type: binding; details: active site; co-purified fatty acid adenylated with 10 mM ATP, ligand modelled as best fit to density; pH 7.5, 25 °C
T2 construct: gene Dmel\CG6178; full length, 544 residues; GST fusion from pGEX-6P-1 in E. coli BL21(DE3), GST cleaved with PreScission protease
T2 sequence (Q9VCC6 1-544): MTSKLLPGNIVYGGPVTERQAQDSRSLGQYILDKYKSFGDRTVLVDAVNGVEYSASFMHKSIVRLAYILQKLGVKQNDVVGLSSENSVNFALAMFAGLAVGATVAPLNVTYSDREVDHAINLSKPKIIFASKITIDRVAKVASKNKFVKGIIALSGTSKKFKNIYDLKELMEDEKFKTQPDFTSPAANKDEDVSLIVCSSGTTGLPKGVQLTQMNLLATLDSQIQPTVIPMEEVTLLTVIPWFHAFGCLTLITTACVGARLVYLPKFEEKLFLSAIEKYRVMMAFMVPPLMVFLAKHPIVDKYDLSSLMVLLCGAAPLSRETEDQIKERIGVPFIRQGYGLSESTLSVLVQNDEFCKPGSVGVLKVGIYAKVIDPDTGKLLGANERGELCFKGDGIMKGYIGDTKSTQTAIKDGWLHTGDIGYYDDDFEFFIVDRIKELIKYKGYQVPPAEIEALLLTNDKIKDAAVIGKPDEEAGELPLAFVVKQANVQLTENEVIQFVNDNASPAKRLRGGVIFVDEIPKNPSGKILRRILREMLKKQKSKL

T1 sequence (P08659 whole entry): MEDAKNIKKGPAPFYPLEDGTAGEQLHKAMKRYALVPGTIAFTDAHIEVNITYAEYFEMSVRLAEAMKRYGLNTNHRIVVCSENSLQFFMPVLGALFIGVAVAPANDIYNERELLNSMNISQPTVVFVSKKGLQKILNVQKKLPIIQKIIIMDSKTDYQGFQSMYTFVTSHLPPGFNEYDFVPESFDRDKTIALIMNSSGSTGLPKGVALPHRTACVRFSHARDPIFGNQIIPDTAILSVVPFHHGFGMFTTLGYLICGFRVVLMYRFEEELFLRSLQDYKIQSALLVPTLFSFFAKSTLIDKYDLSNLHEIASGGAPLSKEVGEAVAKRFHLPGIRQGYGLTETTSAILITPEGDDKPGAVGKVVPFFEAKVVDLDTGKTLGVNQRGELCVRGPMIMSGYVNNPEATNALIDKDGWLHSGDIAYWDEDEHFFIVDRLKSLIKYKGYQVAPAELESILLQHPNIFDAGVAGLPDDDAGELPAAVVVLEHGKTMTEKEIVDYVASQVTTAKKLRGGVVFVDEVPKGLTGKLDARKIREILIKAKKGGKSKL

CN1CCc2cc3nc(C4=N[C@@H](C(=O)O)CS4)sc3cc21 [CycLuc2]
live-cell bioluminescence imaging (IVIS-100) (Fluc): relative performance of all three enzymes with CycLuc2

CCCCCCCC(=O)OP(=O)(O)OC[C@H]1O[C@@H](n2cnc3c(N)ncnc32)[C@H](O)[C@@H]1O [octanoyl-AMP]
X-ray crystal structure, 2.5 Å (CG6178): octanoyl-AMP (C8) and an ethylene glycol in the active site is most consistent with the data
